Measurements from patent US9926306B2, “Inhibition of MCL-1 and/or BFL-1/A1” (Dana-Farber Cancer Institute, Inc., priority 2012, dated 2018).

What was measured:
MCL-1ΔNΔC [1] = target: T1, MCL-1ΔNΔC (Homo sapiens (Human), UniProt Q07820); test: Competitive fluorescence polarization binding assay, MCL-1; conditions: competitive FP
Experimental: Here, we deployed MCL-1 SAHBA as a high fidelity screening tool to determine if its potency and specificity-of-action could be harnessed for small molecule discovery. […] A compilation of 71,296 small molecules was screened for the capacity to displace FITC-MCL-1 SAHBA from recombinant MCL-1ΔNΔC (aa 172-327) (FIG. 4).
Fluorescence polarization assays (FPA) were performed as previously described^38,39. […] Fluorescence polarization was measured at equilibrium and IC50 values calculated by nonlinear regression analysis of competitive binding curves using Prism software (Graphpad).

MCL-1ΔNΔC [2] = target: T1, MCL-1ΔNΔC; test: BAX-mediated liposomal release assay, suppression by MCL-1; type: biochemical
Experimental: (§1) Liposomes were prepared and release assays performed as previously described^46,47. Liposomal composition reflects a mixture of the following molar percentages of lipids (Avanti Polar Lipids): phosphatidylcholine, 48%; phosphatidylethanolamine, 28%; phosphatidylinositol, 10%; dioleoyl phosphatidylserine, 10%; and tetraoleoyl cardiolipin, 4%. Aliquots of mixed lipids (1 mg total) are stored in glass at −20° C. under nitrogen, and before use, resuspended in liposome assay buffer (10 mM HEPES, 200 mM KCl, 1 mM MgCl2, pH 7) containing 12.5 mM of the fluorescent dye ANTS (8-aminonaphthalene-1,3,6-trisulfonic acid, disodium salt) and 45 mM of the quencher DPX (p-xylene-bis-pyridinium bromide. The resulting slurry is vortexed for 10 min and freeze-thawed five times in liquid nitrogen and a 40° C. water bath, respectively. The solution is then passed through an Avanti Mini-Extruder Set (#610000) equipped with a 100 nm filter, followed by passage through a Sepharose column (GE Healthcare) to remove residual ANTS/DPX.

BCL-XLΔC = BCL-XLΔC (Homo sapiens (Human), UniProt Q07817); test: BAX-mediated liposomal release assay, suppression by BCL-XL; type: biochemical
Experimental: as §1

[3] = system: MCL-1-rescued p185+Arf−/−Mcl-1−/− CML cells; test: Cell viability (CellTiter-Glo), MCL-1-dependent leukemia cells; type: cell-based, murine; conditions: MCL-1-dependent cells
Excerpt: A challenges in developing and applying molecular antagonists for BCL-2 family anti-apoptotic proteins is the variable expression of multiple homologues. That is, a cancer cell will only be susceptible to a selective anti-apoptotic inhibitor if the cell is especially dependent on that particular survival protein. […] To test MIM1's activity and specificity in cancer cells, we employed murine p185^+Arf^−/−Mcl-1^−/− chronic myelogenous leukemia (CML) cells that are unable to survive unless reconstituted with MCL-1, reflecting a stringent system for assessing MCL-1 dependence.
p185^+Arf^−/− and MCL-1 or BCL-XL-rescued p185^+Arf^−/−Mcl^−/− cells were maintained in RPMI 1640 (ATCC) supplemented with 10% (v/v) FBS, 100 U/mL penicillin, 100 μg/mL streptomycin, 0.1 mM MEM non-essential amino acids and 50 μM β-mercaptoethanol. […] Cell viability was assayed at 24 h by addition of CellTiter-Glo reagent according to the manufacturer's protocol (Promega), and luminescence was measured using a SpectraMax M5 microplate reader (Molecular Devices). Caspase 3/7 activation was assayed at 8 h by addition of Caspase-Glo 3/7 reagent according to manufacturer's protocol (Promega), and luminescence measured using a SpectraMax M5 microplate reader. […]

[4] = system: BCL-XL-rescued p185+Arf−/−Mcl-1−/− CML cells; test: Cell viability (CellTiter-Glo), BCL-XL-dependent leukemia cells; type: cell-based, murine; conditions: Mus musculus, 24 h
Experimental: Cell viability was assayed at 24 h by addition of CellTiter-Glo reagent according to the manufacturer's protocol (Promega), and luminescence was measured using a SpectraMax M5 microplate reader (Molecular Devices). […] Viability and caspase assays were performed in duplicate, repeated at least twice with independent cell cultures, and the data normalized to vehicle-treated control wells.

[5] = system: parental p185+Arf−/− CML cells; test: Cell viability and CalcuSyn synergy, parental leukemia cells; type: cell-based, murine; conditions: Mus musculus; parental cells expressing both MCL-1 and BCL-XL; read-out: IC50, cytotoxicity
Experimental: (§2) p185^+Arf^−/− and MCL-1 or BCL-XL-rescued p185^+Arf^−/−Mcl^−/− cells were maintained in RPMI 1640 (ATCC) supplemented with 10% (v/v) FBS, 100 U/mL penicillin, 100 μg/mL streptomycin, 0.1 mM MEM non-essential amino acids and 50 μM β-mercaptoethanol. Mouse embryonic fibroblasts (MEFs) cells were maintained in DMEM high glucose (Invitrogen) supplemented with 10% (v/v) FBS, 100 U/mL penicillin, 100 μg/mL streptomycin, 2 mM L-glutamine, 50 mM HEPES, 0.1 mM MEM non-essential amino acids and 50 μM β-mercaptoethanol. […] Cell viability was assayed at 24 h by addition of CellTiter-Glo reagent according to the manufacturer's protocol (Promega), and luminescence was measured using a SpectraMax M5 microplate reader (Molecular Devices). Caspase 3/7 activation was assayed at 8 h by addition of Caspase-Glo 3/7 reagent according to manufacturer's protocol (Promega), and luminescence measured using a SpectraMax M5 microplate reader. Viability and caspase assays were performed in duplicate, repeated at least twice with independent cell cultures, and the data normalized to vehicle-treated control wells.

[6] = system: wild-type or Bax−/−Bak−/− MEFs; test: Cell viability (CellTiter-Glo), MEFs; type: cell-based, mouse; conditions: non-malignant fibroblasts, 24 h
Experimental: as §2

[7] = system: wild-type or Bax−/−Bak−/− MEFs; test: Caspase 3/7 activation (Caspase-Glo), MEFs; type: cell-based, mouse; conditions: 8 h
Experimental: as §2

[8] = system: BCL-XL-rescued p185+Arf−/−Mcl-1−/− CML cells; test: Caspase 3/7 activation (Caspase-Glo), BCL-XL-dependent leukemia cells; type: cell-based, murine; conditions: 8 h
Experimental: p185^+Arf^−/− and MCL-1 or BCL-XL-rescued p185^+Arf^−/−Mcl^−/− cells were maintained in RPMI 1640 (ATCC) supplemented with 10% (v/v) FBS, 100 U/mL penicillin, 100 μg/mL streptomycin, 0.1 mM MEM non-essential amino acids and 50 μM β-mercaptoethanol. […] Caspase 3/7 activation was assayed at 8 h by addition of Caspase-Glo 3/7 reagent according to manufacturer's protocol (Promega), and luminescence measured using a SpectraMax M5 microplate reader. Viability and caspase assays were performed in duplicate, repeated at least twice with independent cell cultures, and the data normalized to vehicle-treated control wells.

T1 sequence (Q07820 172-327, stated change not applied): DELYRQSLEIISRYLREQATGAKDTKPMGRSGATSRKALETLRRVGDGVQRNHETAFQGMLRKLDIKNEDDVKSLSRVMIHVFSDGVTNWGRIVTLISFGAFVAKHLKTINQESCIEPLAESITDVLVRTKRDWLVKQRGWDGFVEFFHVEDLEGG
BCL-XLΔC, sequence (Q07817 1-212): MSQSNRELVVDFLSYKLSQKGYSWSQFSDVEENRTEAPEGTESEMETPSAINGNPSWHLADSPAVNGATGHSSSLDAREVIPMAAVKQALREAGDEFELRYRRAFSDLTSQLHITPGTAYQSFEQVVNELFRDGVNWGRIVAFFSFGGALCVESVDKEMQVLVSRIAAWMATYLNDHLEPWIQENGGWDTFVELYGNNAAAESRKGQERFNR

SMILES: CN(C)CC[C@H](CSc1ccccc1)Nc1ccc(S(=O)(=O)NC(=O)c2ccc(N3CCN(Cc4ccccc4-c4ccc(Cl)cc4)CC3)cc2)cc1[N+](=O)[O-] [ABT-737, N-(4-(4-((4′-chloro(1,1′-biphenyl)-2-yl)methyl)piperazin-1-yl)benzoyl)-4-(((1R)-3-(dimethylamino)-1-((phenylsulfanyl)methyl)propyl)amino)-3-nitrobenzenesulfonamide, reference compound]
- MCL-1ΔNΔC binding activity (MCL-1ΔNΔC [1]): no activity
- blockade of MCL-1ΔNΔC suppression of tBID-induced BAX activation (MCL-1ΔNΔC [2]): no effect
- blockade of BCL-XLΔC suppression of tBID-induced BAX activation (BCL-XLΔC): negates
- effect on viability / cytotoxicity [3]: no effect
- IC50 [4]: 1.6 µM
- IC50 [5]: 5.1 µM
- effect on viability / toxicity [6]: no significant effect
- caspase 3/7 activation [7]: no observed caspase 3/7 activation
- caspase 3/7 activation [8]: dose-responsive caspase 3/7 activation
